Assay results published in US9670255B2 (priority 2013, dated 2017).
pKd: −log10 of the molar value.

What was measured:
LISA314 V21 = LISA314 V21 (Streptomyces avidinii, UniProt P22629, E125D/E140N/N47D/R108K/R127K/S51D/Y107S/Y46S); test: Affinity analysis by SPR (Biacore assay), LISA314 V21; type: binding; conditions: SPR Biacore T100, protein immobilized on Sensor Chip NTA, equilibrium value analysis, read-out: Dissociation constant: KD
Protocol: (§1) For affinity analysis, Biacore T100 was used. Specifically, the protein that had been fractionated by gel filtration chromatography was immobilized using Sensor Chip NTA. As a running buffer, 0.5% Tween20, HBS-P+ was used. Immobilization of the protein on nickel NTA and ligand capture were carried out according to the template program included therewith.
(§2) The amount of a ligand immobilized on a sensor chip was adjusted within the range of 1608 RU to 8042 RU, so as to suppress mass transport limitation. As analytes, biocytin and Compound 29 (the structure thereof is shown below) synthesized in Example 1 were used. It is to be noted that biocytin is a main existence form of biotin.
(§3) With regard to the concentrations of the analytes, in the case of biocytin, eight 2-fold dilution series were prepared from 1 μM, and in the case of Compound 29, twelve 2-fold dilution series were prepared from 16 μM. The measurement was carried out at a flow rate of 30 μl/min, for a contact time of 120 seconds, and for a dissociation time of 600 seconds. For the analysis of the data, sensorgrams for all concentrations were incorporated into analysis software, the equilibrium value analysis was then carried out, and the dissociation constant KD was then calculated.

LISA314 WT = test: Affinity analysis by SPR (Biacore assay), LISA314 WT; type: binding, Streptomyces avidinii; conditions: SPR Biacore T100, protein immobilized on Sensor Chip NTA, equilibrium value analysis, read-out: Dissociation constant: KD
Protocol: as §1, §2, §3

Sequence of LISA314 V21 (P22629 25-183 Y46S/N47D/S51D/Y107S/R108K/E125D/R127K/E140N limits assumed): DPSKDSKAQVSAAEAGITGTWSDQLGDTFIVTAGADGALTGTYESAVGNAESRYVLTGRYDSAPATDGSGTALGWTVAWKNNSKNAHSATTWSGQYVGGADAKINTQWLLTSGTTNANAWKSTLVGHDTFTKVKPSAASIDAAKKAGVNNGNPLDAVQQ

`N[C@@H](CCCCNC(=O)CCCC[C@@H]1SC[C@@H]2NC(=O)N[C@@H]21)C(=O)O` [Biocytin, biocytin] was tested. Which pKd (LISA314 V21) did it give?
Its pKd is 6.46.

What about the pKd (LISA314 WT) of the same compound?
The pKd was 8.62.
